Experimental data published in patent US12516038B2, “Inhibitors of antigen presentation by HLA-DR” (Janssen Pharmaceutica NV, priority 2020, dated 2026).

Key:
[1] = tested on: HLA-DR4 restricted mouse T cell hybridoma line (DR4.CII.36.8) with HLA-DRB1*04:01-expressing Boleth cells; assay: HLA-DR4-restricted peptide-specific T cell-based assay (hybridoma assay); details: 6 h, inhibition of IL-2 production, CII259-273 peptide presented by Boleth cells
Description: (§1) The screening was made through two sets of HLA-DR/peptide-dependent assays: a peptide-dependent Homogeneous Time Resolved Fluorescence (HTRF) binding assay followed by an HLA-DR dependent, peptide-specific T cell functional assay (HLA-DR4-restricted peptide-specific T cell-based assay hybridoma assay). The HTRF binding assay was designed to measure the ability of the small molecule to inhibit the loading of a fluorescently labeled high-affinity peptide onto HLA-DR peptide binding groove. The peptide-specific T cell functional assay assesses T cell activation resulting from proper peptide presentation onto HLA-DR expressed on the surface of the antigen-presenting cells to the T cell and is used to screen compounds able to inhibit such HLA-DR/peptide-dependent T cell activation.
HLA-DR4-Restricted Peptide-Specific T Cell-Based Assay (Hybridoma Assay)
The hybridoma assay was used to measure compound inhibition of TL-2 production from an HLA-DR4 restricted mouse T cell hybridoma line (DR4.CII.36.8) that was antigen-specific for collagen II259-273 (CII259-273) peptide when presented with an HLA-DR4 expressing Antigen Presenting Cell (APC) cell line (i.e., Boleth).
To the HLA-DRB1*04:01-expressing B cell line (Boleth cell line from International Histocompatibility Working Group (IHWG), ref #IHW09031) was presented the collagen II 259-273 peptide (CII259-273, GIAGFKGEQGPKGEP) to mouse T cell hybridoma (DR4.CII.36.8 T cell hybridoma; clone 36.8, expressing a CII259-273-specific, HLA-DRB1*04:01-restricted T cell receptor). Upon proper CII259-273 peptide presentation, the T cell hybridoma was activated and thus produced IL-2 cytokine, whose level in the cell culture supernatant was detected using mouse IL-2 AlphaLISA kit (Perkin Elmer, Cat: AL511F).
This assay was performed in a 384-well plate (polypropylene V-bottom Greiner bio-one, ref #784075) by: (i) pre-incubation of 20 μL of 1.25 million/mL Boleth cells (25,000 cells) resuspended in DMEM/1% fetal calf serum (FCS; Gibco, ref #16140-071) with 20 μL of 2.5× final concentration of compound of interest in DMEM/1% serum/0.75% DMSO at 37° C. for 1 hr in the incubator, then (ii) 10 μL of 5 million/mL (50,000 cells) DR4.CII.36.8 T cell hybridoma cells resuspended in DMEM/1% FCS was added and incubated for 6 h at 37° C. in the incubator. Supernatant was then collected and mouse IL-2 detected using AlphaLISA kit (ref #AL511F). Compounds were tested in duplicate, with 8-point titration. Mean±SD of AlphaLISA units at each compound concentration was used for compound IC50 calculation. The negative control for this experiment was run without peptide stimulation and used a DMSO vehicle wherein no compound of interest was added. The positive control was run with peptide stimulation and used a DMSO vehicle wherein no compound of interest was added. Both the negative and positive controls were run in 8 replicates each. Curve fitting and IC50 calculation for dose response data was performed by GraphPad software 6 or higher (GraphPad Software, San Diego, CA). Dose response data was plotted versus the log of compound concentration and IC50 was determined using 4-parameter logistic (4-PL) curve fitting.

HLA-DRB1*0401 = HLA-DRB1*0401 (Homo sapiens (Human), UniProt P01903+P01911, A100K/A169T/DEL228-266/F76Y/I96L/K127E/L162R/M171V/N62H/P40V/Q125Y/R42H/S133A/S149N/S66Y/V115G/V209L/W38E); assay: HLA-DR4 HTRF assay; format: binding; details: inhibition of loading of Alexa Fluor 647-labeled Cit-CII peptide onto HLA-DR4 (CLIP cleaved)
Description: as §1
The HLA-DR4 HTRF assay is based on HTRF technology and designed to measure ability of compounds to prevent loading of high-affinity Alexa Fluor 647-labeled Citrullinated Collagen 111236-1249 peptide (named Cit-CII/AF647, aa1236-1249, LQYM-Cit-ADQAAGGLR; Alexa Fluor 647 dye commercially available from Invitrogen) onto HLA-DRB1*0401. The HTRF assay technology is based on the energy transfer between two fluorophores, a donor and an acceptor, when in close proximity. The HLA-DR4 protein construct was uniquely designed for this assay and has (i) the α and […] subunits fused to human Fc chains and (ii) the invariant chain-associated peptide (CLIP peptide, aa85-101), the universal moderate/low-affinity HLA-DR binder, attached to the beta chain through a HRV3C protease-cleavable linker.
Because of the low stability of peptide free HLA-DR4 heterodimer, the construct was purified and delivered with CLIP peptide attached to the N-terminal of the β chain. The HLA-DR4 heterodimer was pre-treated with 3 μL HRV3C protease (Novagen E71493-3) (˜2 U/μL) per mg of the cleavable protein to cleave CLIP peptide and incubated overnight (>16 hrs) at 4° C. This method yielded at least 80% cleavage and allowed the CLIP peptide to be potentially exchanged with the fluorescently labeled high affinity cit-CII1236-1249 peptide. A batch of […] protein with CLIP cleaved was prepared for multiple experiments and was stable for several months when stored at 4° C.
In this assay, anti-human Fc antibody labeled with Tb-Cryptate probe was used as the donor (commercially available from Cisbio—PAb Anti-human IgG-Tb Cryptate, Cat #61HFCTAB) and high affinity peptide Citrullinated CII (cit-CII) labeled with Alexa 647 fluorophore was utilized as the acceptor. Inhibitors of the exchange of the pre-cleaved CLIP peptide for the high affinity cit-CII1236-1249 peptide onto HLA-DRB1*04:01 caused a decrease in HTRF signal as measured by the ratio of the 665 nm/620 nm emitted signal. Screening compounds were robotically pre-dispensed (150 nL, Hummingbird, DigiLab/CyBio AG) onto black, round bottom, nontreated, 1536-well assay plates (Corning #3939), were incubated with 3 nM HLA-DR4 (with CLIP cleaved) plus 1 nM Human IgG-Tb (anti-Fc-Tb) Antibody for 45 min prior to addition of 40 nM Cit-CII peptide labeled with Alexa-647. The negative control was DMSO plus 1 nM Human IgG-Tb (anti-Fc-Tb) Antibody, incubated for 45 minutes before addition of 40 nM Cit-CII peptide labeled with Alexa-647. The positive control was DMSO plus 3 nM HLA-DR4 (with CLIP cleaved) plus 1 nM Human IgG-Tb (anti-Fc-Tb) Antibody with 40 nM Cit-CII peptide labeled with Alexa-647 added after a 45-minute incubation. Plates were centrifuged at 1000 rpm for 1 minute and then incubated at 37° C., at 90% relative humidity for 90 minutes. After incubation, plates were read on a spectrophotometer, the Pherastar FS (BMG Labtech), in HTRF mode. The HTRF ratio as well as percent inhibition was calculated. Curve fitting and IC50 calculation for dose response data was performed by Microsoft Excel, 3DX (Janssen proprietary software) or Graphpad Prism (Graphpad Software, San Diego, CA). […]

CC[C@@H]1CC(=O)c2ccc(O[C@H](c3ccncc3)c3ccc(C(N)=O)cc3)cc2O1 (single isomer, unassigned) [Example 41a, 4-((*S)—(((*R)-2-ethyl-4-oxochroman-7-yl)oxy)(pyridin-4-yl)methyl)benzamide]
IC50 ([1]; Mus musculus, T-cell): > 15000 nM
IC50 (HLA-DRB1*0401): 1200 nM

C[C@H]1COc2cc(O[C@@H](c3ccncc3)c3ccc(C(N)=O)cc3)ccc2C1=O (single isomer, unassigned) [Example 44c, 4-((*R)—(((*S)-3-Methyl-4-oxochroman-7-yl)oxy)(pyridin-4-yl)methyl)benzamide]
IC50 ([1]; Mus musculus, T-cell): > 15000 nM
IC50 (HLA-DRB1*0401): 1300 nM

C[C@H]1COc2cc(O[C@H](c3ccncc3)c3ccc(C(N)=O)cc3)ccc2C1=O (single isomer, unassigned) [Example 44d, 4-((*S)—(((*S)-3-Methyl-4-oxochroman-7-yl)oxy)(pyridin-4-yl)methyl)benzamide]
IC50 ([1]; Mus musculus, T-cell): > 15000 nM
IC50 (HLA-DRB1*0401): 850 nM

NC(=O)c1ccc([C@H](Oc2cc(F)c3c(c2)OCCC3=O)c2ccncc2)cc1 (single isomer, unassigned) [Example 51b, (*S)-4-(((5-Fluoro-4-oxochroman-7-yl)oxy)(pyridin-4-yl)methyl)benzamide]
IC50 ([1]; Mus musculus, T-cell): 15000 nM
IC50 (HLA-DRB1*0401): 3500 nM

NC(=O)c1ccc([C@H](Oc2cc3c(cc2F)C(=O)CCO3)c2ccncc2)cc1 (single isomer, unassigned) [Example 52b, (*S)-4-(((6-Fluoro-4-oxochroman-7-yl)oxy)(pyridin-4-yl)methyl)benzamide]
IC50 ([1]; Mus musculus, T-cell): 8500 nM
IC50 (HLA-DRB1*0401): 300 nM

Cc1c(O[C@H](c2ccc(Cl)cc2)c2ccc(C(N)=O)cc2)ccc2c1OCCC2=O (single isomer, unassigned) [Example 57b, (*S)-4-((4-chlorophenyl)((8-methyl-4-oxochroman-7-yl)oxy)methyl)benzamide]
IC50 ([1]; Mus musculus, T-cell): > 15000 nM
IC50 (HLA-DRB1*0401): 2000 nM

Cc1c(O[C@@H](c2ccc(C#N)cc2)c2ccc(C(N)=O)cc2)ccc2c1OCCC2=O (single isomer, unassigned) [Example 59b, (*S)-4-((4-cyanophenyl)((8-methyl-4-oxochroman-7-yl)oxy)methyl)benzamide]
IC50 ([1]; Mus musculus, T-cell): > 15000 nM
IC50 (HLA-DRB1*0401): 1300 nM

Cc1c(O[C@H](c2ccc(Cl)cc2)c2ccc(C(N)=O)cn2)ccc2c1OCCC2=O (single isomer, unassigned) [Example 63a, (*R)-6-((4-chlorophenyl)((8-methyl-4-oxochroman-7-yl)oxy)methyl)nicotinamide]
IC50 ([1]; Mus musculus, T-cell): > 15000 nM
IC50 (HLA-DRB1*0401): 1600 nM

Cc1c(O[C@H](c2ccc(C(N)=O)cc2)c2cccc[n+]2[O-])ccc2c1OCCC2=O (single isomer, unassigned) [Example 65a, (*R)-2-((4-carbamoylphenyl)((8-methyl-4-oxochroman-7-yl)oxy)methyl)pyridine 1-oxide]
IC50 [1]: > 15000 nM
IC50 (HLA-DRB1*0401): 30000 nM

Cc1c(O[C@H](c2ccc(F)cc2)c2ccc(C(N)=O)cc2)ccc2c1OCCC2=O (single isomer, unassigned) [Example 66b, (*S)-4-((4-Fluorophenyl)((8-methyl-4-oxochroman-7-yl)oxy)methyl)benzamide]
IC50 ([1]; Mus musculus, T-cell): > 15000 nM
IC50 (HLA-DRB1*0401): 2400 nM

Cc1c(O[C@@H](c2ccc(C(N)=O)cc2)c2cccc(F)c2)ccc2c1OCCC2=O (single isomer, unassigned) [Example 67b, (*S)-4-((3-Fluorophenyl)((8-methyl-4-oxochroman-7-yl)oxy)methyl)benzamide]
IC50 ([1]; Mus musculus, T-cell): > 15000 nM
IC50 (HLA-DRB1*0401): 2200 nM

Cc1c(O[C@@H](c2ccc(C(N)=O)cc2)c2ccccc2F)ccc2c1OCCC2=O (single isomer, unassigned) [Example 68b, (*S)-4-((2-Fluorophenyl)((8-methyl-4-oxochroman-7-yl)oxy)methyl)benzamide]
IC50 ([1]; Mus musculus, T-cell): > 15000 nM
IC50 (HLA-DRB1*0401): 5400 nM

Cc1c(O[C@@H](c2ccccc2)c2ccc(C(N)=O)cc2)ccc2c1OCCC2=O (single isomer, unassigned) [Example 69b, (*S)-4-(((8-Methyl-4-oxochroman-7-yl)oxy)(phenyl)methyl)benzamide]
IC50 ([1]; Mus musculus, T-cell): > 15000 nM
IC50 (HLA-DRB1*0401): 2100 nM

Cc1c(O[C@@H](c2ccncc2)c2cccc(CNC(N)=O)c2)ccc2c1OCCC2=O (single isomer, unassigned) [Example 81a, (*R)-1-(3-(((8-methyl-4-oxochroman-7-yl)oxy)(pyridin-4-yl)methyl)benzyl)urea]
IC50 ([1]; Mus musculus, T-cell): 15000 nM
IC50 (HLA-DRB1*0401): 690 nM

COc1cc(C(N)=O)ccc1[C@H](Oc1ccc2c(c1C)OCCC2=O)c1ccncc1 (single isomer, unassigned) [Example 82a, (*R)-3-Methoxy-4-(((8-methyl-4-oxochroman-7-yl)oxy)(pyridin-4-yl)methyl)benzamide]
IC50 ([1]; Mus musculus, T-cell): > 15000 nM
IC50 (HLA-DRB1*0401): 710 nM

COc1cc(C(N)=O)ccc1[C@@H](Oc1ccc2c(c1C)OCCC2=O)c1ccncc1 (single isomer, unassigned) [Example 82b, (*S)-3-Methoxy-4-(((8-methyl-4-oxochroman-7-yl)oxy)(pyridin-4-yl)methyl)benzamide]
IC50 ([1]; Mus musculus, T-cell): 5700 nM
IC50 (HLA-DRB1*0401): 620 nM

CCOc1cc(C(N)=O)ccc1[C@@H](Oc1ccc2c(c1C)OCCC2=O)c1ccncc1 (single isomer, unassigned) [Example 83b, (*S)-3-ethoxy-4-(((8-methyl-4-oxochroman-7-yl)oxy)(pyridin-4-yl)methyl)benzamide]
IC50 ([1]; Mus musculus, T-cell): 5000 nM
IC50 (HLA-DRB1*0401): 690 nM
